Data on one molecule can be found in ChEMBL document CHEMBL2073743, “HMG-CoA reductase inhibitors (statins) characterized as direct inhibitors of P-glycoprotein” (Pharm Res, 2001).

The IC50 is the point on the concentration scale where inhibition reaches its midpoint.

Test [1] deals with T1, ATP-dependent translocase ABCB1 (Homo sapiens, UniProt P08183). As to the kind of experiment: TP_TRANSPORTER: inhibition of Rhodamine 123 transport in 3T3-G185 cells. The format is functional, cell-based.
In test [2] the target is T1, ATP-dependent translocase ABCB1. The test can be described thus: TP_TRANSPORTER: inhibition of Daunorubicin transport in 3T3-G185 cells. The format is functional, cell-based.

T1 sequence (P08183 whole entry): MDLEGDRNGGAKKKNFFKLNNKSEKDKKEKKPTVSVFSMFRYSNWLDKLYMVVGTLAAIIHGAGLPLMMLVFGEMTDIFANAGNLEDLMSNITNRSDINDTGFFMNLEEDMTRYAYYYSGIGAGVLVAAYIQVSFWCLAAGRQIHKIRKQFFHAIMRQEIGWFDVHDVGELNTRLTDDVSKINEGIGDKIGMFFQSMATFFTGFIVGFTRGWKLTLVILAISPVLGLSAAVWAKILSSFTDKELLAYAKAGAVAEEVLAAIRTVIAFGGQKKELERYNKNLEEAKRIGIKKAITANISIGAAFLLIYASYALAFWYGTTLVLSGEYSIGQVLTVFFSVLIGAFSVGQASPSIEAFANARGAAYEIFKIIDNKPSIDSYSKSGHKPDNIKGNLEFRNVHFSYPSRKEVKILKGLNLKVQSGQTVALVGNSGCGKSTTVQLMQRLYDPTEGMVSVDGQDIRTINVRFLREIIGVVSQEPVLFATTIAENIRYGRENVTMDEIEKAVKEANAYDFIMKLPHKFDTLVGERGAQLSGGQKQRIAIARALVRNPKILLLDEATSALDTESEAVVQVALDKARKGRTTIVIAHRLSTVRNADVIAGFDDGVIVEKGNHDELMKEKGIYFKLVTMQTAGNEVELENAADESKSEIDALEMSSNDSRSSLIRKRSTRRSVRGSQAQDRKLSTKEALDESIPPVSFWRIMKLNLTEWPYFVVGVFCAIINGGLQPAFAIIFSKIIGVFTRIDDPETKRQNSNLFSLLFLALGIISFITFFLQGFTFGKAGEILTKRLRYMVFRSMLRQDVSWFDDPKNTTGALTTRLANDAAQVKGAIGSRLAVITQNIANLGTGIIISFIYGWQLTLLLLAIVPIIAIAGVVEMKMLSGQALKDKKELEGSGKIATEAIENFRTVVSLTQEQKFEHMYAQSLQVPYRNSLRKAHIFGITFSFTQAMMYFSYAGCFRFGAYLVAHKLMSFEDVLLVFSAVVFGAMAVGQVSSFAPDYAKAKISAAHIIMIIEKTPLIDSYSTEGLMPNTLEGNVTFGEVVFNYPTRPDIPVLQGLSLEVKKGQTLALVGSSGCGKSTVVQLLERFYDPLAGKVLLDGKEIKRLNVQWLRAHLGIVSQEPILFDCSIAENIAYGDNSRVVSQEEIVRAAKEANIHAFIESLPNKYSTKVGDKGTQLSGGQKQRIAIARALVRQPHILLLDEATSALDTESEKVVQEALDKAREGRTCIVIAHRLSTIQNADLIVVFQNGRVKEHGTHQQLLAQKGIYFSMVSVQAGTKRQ

For the molecule `CC(C)c1c(C(=O)Nc2ccccc2)c(-c2ccccc2)c(-c2ccc(F)cc2)n1CC[C@@H](O)C[C@@H](O)CC(=O)O` [ATORVASTATIN], the half-inhibitory concentration (IC50) in test [1] stood at 307 µM; in test [2], 271 µM.
